ChEMBL document CHEMBL1201862, “PubChem BioAssay data set” (2004)
Calls of active or inactive are those of the source.

Experiments:
INS1 = assay: beta cell apoptosis inhibitors, cytokine rescue, dose response, luminescence, retest (AID 449756); type: functional, cell-based; conditions: Rattus norvegicus;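 further: cell death triggered by IL-1 beta plus TNF-alpha plus IFN-gamma mixture; protective hits raise ATP signal compared with cytokine alone wells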
[1] = inhibitors of intracellular T. cruzi replication, confirmation, NIH3T3 host cells, beta-gal luminescence (AID 2044); type: functional, cell-based;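 further: intracellular parasites grown in NIH/3T3 mouse fibroblasts as host cells; luminescent beta-galactosidase reporter signal from transgenic T. cruzi replicating inside host cells; inhibitors lower the luminescence signal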
[2] = cytotoxicity toward NIH3T3 fibroblasts, dose response, counter-screen, cell-based, ATP luminescence, mouse fibroblasts (AID 2010); type: functional;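 further: cells exposed to compound for about 90 hours before reading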
Cytochrome P450 2C9 = Cytochrome P450 2C9 (Homo sapiens, UniProt P11712)
Cytochrome P450 2C9, sequence (P11712 whole entry): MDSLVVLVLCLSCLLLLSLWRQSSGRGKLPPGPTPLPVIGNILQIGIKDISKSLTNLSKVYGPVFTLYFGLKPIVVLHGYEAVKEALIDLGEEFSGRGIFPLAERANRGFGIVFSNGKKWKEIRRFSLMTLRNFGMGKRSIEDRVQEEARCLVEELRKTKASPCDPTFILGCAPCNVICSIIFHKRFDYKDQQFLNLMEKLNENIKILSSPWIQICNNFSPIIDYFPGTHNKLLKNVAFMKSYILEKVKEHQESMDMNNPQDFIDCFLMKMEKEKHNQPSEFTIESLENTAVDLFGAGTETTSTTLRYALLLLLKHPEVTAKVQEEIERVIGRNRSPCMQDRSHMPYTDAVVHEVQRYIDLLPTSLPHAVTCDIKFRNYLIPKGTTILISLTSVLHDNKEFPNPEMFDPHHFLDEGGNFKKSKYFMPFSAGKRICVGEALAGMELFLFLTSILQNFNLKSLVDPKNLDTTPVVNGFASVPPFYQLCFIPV

[3] = biological target: T1, Heat shock factor protein 1 (Mus musculus, UniProt P38532); assay: inhibition of MG132-induced HSE-luciferase signal, confirmation, cell-based, NIH3T3, luminescence, dose retest (AID 2382); type: functional;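 further: NIH3T3 fibroblasts with HSF1-driven luciferase reporter stressed by proteasome inhibitor MG132; luminescence from HSF1-driven luciferase expression after 8 hours of MG132 stress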
T1 sequence (P38532 whole entry): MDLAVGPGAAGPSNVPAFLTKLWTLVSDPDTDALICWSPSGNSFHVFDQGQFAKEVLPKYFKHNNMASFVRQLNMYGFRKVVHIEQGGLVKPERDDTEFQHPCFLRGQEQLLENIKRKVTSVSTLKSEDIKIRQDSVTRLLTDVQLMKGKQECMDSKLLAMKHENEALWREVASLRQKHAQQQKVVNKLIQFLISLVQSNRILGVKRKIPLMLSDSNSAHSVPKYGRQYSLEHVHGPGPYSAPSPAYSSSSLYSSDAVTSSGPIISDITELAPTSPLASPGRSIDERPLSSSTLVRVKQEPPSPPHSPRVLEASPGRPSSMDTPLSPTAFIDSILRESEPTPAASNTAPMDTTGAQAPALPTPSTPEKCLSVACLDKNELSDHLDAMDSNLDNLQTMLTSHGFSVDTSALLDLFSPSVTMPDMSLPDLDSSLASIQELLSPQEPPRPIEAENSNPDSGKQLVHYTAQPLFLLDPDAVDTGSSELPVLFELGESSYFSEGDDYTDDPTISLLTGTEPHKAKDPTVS

[4] = biological target: T2, Rac GTPase-activating protein 1 (Homo sapiens, UniProt Q9H0H5); assay: MgcRacGAP GTPase-activating activity inhibitors, confirmation, biochemical, ADP Hunter fluorescence, primary and confirmatory (AID 624330); type: functional
T2 sequence (Q9H0H5 whole entry): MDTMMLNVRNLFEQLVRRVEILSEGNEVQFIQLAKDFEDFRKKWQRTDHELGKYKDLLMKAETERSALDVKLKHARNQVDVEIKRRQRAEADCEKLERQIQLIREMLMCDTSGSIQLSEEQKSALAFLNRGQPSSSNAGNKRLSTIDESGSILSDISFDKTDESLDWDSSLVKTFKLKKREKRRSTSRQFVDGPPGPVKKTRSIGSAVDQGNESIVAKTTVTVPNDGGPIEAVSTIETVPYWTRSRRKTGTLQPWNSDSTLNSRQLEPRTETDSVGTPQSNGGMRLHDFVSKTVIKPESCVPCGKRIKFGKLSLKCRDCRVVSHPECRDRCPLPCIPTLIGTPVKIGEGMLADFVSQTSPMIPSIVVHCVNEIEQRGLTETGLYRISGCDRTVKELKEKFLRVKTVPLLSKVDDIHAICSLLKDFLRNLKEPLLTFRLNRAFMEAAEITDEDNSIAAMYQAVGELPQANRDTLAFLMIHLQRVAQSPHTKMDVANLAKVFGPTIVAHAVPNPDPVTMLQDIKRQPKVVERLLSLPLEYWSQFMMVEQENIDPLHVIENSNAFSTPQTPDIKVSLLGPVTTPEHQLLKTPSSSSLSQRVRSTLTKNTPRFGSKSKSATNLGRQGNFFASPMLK

[5] = HEp-2 cell cytotoxicity, dose response, cytotoxicity control for RSV inhibitor project, HTS (AID 2410); type: functional; conditions: human respiratory syncytial virus
Cytochrome P450 3A4 = Cytochrome P450 3A4 (Homo sapiens, UniProt P08684);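 further: CYP3A4 tested as one member of a cytochrome P450 panel screen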
Cytochrome P450 3A4, sequence (P08684 whole entry): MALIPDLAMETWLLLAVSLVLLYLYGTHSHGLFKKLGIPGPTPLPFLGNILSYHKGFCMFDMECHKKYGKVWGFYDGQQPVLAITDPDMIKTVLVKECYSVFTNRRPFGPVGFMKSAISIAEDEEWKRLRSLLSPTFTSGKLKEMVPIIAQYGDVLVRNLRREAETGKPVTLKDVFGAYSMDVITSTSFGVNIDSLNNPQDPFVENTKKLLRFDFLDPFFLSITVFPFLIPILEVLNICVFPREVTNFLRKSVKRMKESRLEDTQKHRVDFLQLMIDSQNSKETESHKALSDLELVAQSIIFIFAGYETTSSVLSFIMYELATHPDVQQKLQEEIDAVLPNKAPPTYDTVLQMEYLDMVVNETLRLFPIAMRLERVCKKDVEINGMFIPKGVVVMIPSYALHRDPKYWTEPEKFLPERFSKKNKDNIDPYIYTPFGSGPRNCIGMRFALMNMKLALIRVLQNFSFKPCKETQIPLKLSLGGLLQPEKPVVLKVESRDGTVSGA

[6] = tested on: Streptococcus sp. 'group A'; assay: growth inhibition of control SK(-) GAS strain, dose response, counter-screen for streptokinase expression inhibitor project, luminescence, kanamycin, BacTiterGlo, confirmation (AID 1900); type: functional, organism-based
Streptococcus = assay: Group A Streptococcus viability loss, dose response, counter-screen for streptokinase expression inhibitor project, luminescence, BacTiterGlo (AID 1915); type: functional, organism-based;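 further: potency for reduction of bacterial viability or growth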

## O=C(NCC#CCSc1nnc(-c2cccc3ccccc23)o1)c1cccs1
INS1
  AC50: 2.51 µM (active)

## CC#CC[N+](C)(C)CCCCCCCC
INS1
  AC50: 28.7 µM (active)

## O=[N+]([O-])c1cc(-c2nnc(Nc3ccccc3)c3ccccc23)ccc1N1CCOCC1
[1]
  EC50: 1.28 µM (active)
[2]
  EC50: > 30 µM (not active)

## Cc1ccc(/C=C/C(=O)NC(=S)Nc2ccccc2C(=O)NC2CCCCC2)cc1
Cytochrome P450 2C9
  AC50: 7.08 µM (inconclusive)

## CSCCC(NS(=O)(=O)c1cccs1)C(=O)NCc1ccccc1 (stereo unspecified)
[3]
  EC50: > 195 µM (not active)

## COc1ccc(NCc2ccsc2)cc1
[4]
  IC50: 29.6 µM (active)

## COc1ccc(CNC(C)CCc2ccccc2)cc1 (stereo unspecified)
[3]
  EC50: > 195 µM (not active)

## Cc1ccc(C)c(NS(=O)(=O)c2cc(C(=O)N3CCc4ccccc4C3)ccc2Cl)c1
[1]
  EC50: 2.06 µM (active)
[2]
  EC50: > 60 µM (not active)

## c1csc(CNc2nc(-c3ccc4c(c3)OCO4)nc3ccccc23)c1
Cytochrome P450 2C9
  AC50: 1.58 µM (inconclusive)

## N#CCCn1c(=O)c(-c2ccccc2)nc2cnc(Oc3cccc(Cl)c3)nc21
Cytochrome P450 2C9
  AC50: 7.94 µM (inconclusive)

## CCOc1ccc(CNC(=O)CCS(=O)(=O)c2ccc3c(c2)oc(=O)n3C)cc1
[3]
  EC50: > 195 µM (not active)

## Cc1ccc(CNc2ccc(N3CCOCC3)cc2)s1
[4]
  IC50: 20.1 µM (active)

## CCCNC(=O)c1c(N)n(Cc2ccco2)c2nc3ccccc3nc12
[5]
  CC50: 29.8 µM (active)

## Cc1ccc(CN2CCN(Cc3cc4ccccc4o3)CC2CCO)cc1 (stereo unspecified)
[3]
  EC50: > 195 µM (not active)

## CCN(CC)CCNCC(=O)Nc1ccc(Oc2ccccc2)cc1
[4]
  IC50: 119 µM (active)

## COc1ccc(C(=O)CSc2nc(C)cc(O)n2)cc1C
[3]
  EC50: > 195 µM (not active)

## c1ccc(COc2ccc(OCCN3CCCC3)cc2)cc1
[1]
  EC50: 1.18 µM (active)
[2]
  EC50: 13.1 µM (active)

## COc1cc(CNc2ccc(N3CCOCC3)cc2)cc(Br)c1OC
[4]
  IC50: 15.4 µM (active)

## Cc1nc2ccc(NC(=O)N3CCSCC3)cc2s1
[3]
  EC50: > 195 µM (not active)

## NCCSCc1ccccc1Cl
Cytochrome P450 2C9
  AC50: 3.98 µM (inconclusive)

## CCN(CC)c1ccc(NC(=O)CSC(=O)c2ccccc2)cc1
[4]
  IC50: 83.9 µM (active)

## Cc1cc(/C=C2\C(=N)N3N=C(C(C)C)SC3=NC2=O)c(C)n1Cc1ccccc1
[5]
  CC50: 21.5 µM (active)

## Cc1cccc(N(C(=O)c2ccco2)C(C(=O)NC2CCCC2)c2cccnc2)c1C (stereo unspecified)
[3]
  EC50: > 195 µM (not active)

## CC1CCCN(S(=O)(=O)c2ccc(NC(=O)c3cccc(-n4cnnn4)c3)cc2)C1 (stereo unspecified)
[5]
  CC50: 16.4 µM (active)

## Cc1nn2c(SCC(=O)c3cccs3)cc(C(C)(C)C)nc2c1-c1ccccc1
[1]
  EC50: 2.66 µM (active)
[2]
  EC50: > 60 µM (not active)

## Cc1cc2cc(CCNC(=O)C(=O)c3c[nH]c4ccccc34)c(O)nc2cc1C
[3]
  EC50: 21.1 µM (active)

## Cc1ccccc1C1c2[nH]c3ccccc3c2CCN1Cc1cccn1-c1ncccn1 (stereo unspecified)
[1]
  EC50: 1.26 µM (active)
[2]
  EC50: > 60 µM (not active)

## COc1ccc(Oc2ncc3nc(-c4ccc(Cl)cc4)c(=O)n(CCC#N)c3n2)cc1
Cytochrome P450 2C9
  AC50: 7.94 µM (inconclusive)

## CC(C)CC(C(=O)Nc1cccc(O)c1)N1C(=O)c2ccccc2C1=O (stereo unspecified)
[3]
  EC50: > 195 µM (not active)

## C=CCN(CC=C)C(=S)NC(=O)c1ccc(OC)c(Br)c1
Cytochrome P450 2C9
  AC50: 15.8 µM (inconclusive)

## O=S(=O)(N1CCCCC1)N1CCN(CC(O)COc2ccc3cc(Br)ccc3c2)CC1 (stereo unspecified)
[1]
  EC50: 2.31 µM (active)
[2]
  EC50: > 60 µM (not active)

## O=C(NNC(=O)c1ccc2c(c1)C(=O)N(C1CCCCC1)C2=O)c1cccnc1
Cytochrome P450 2C9
  AC50: 15.8 µM (inconclusive)

## Cc1ccc(-c2nc(Nc3ccc(N4CCOCC4)cc3)c3ccccc3n2)cc1
[5]
  CC50: 18.6 µM (active)

## Cc1nc2c(ccc3nc(NC(=O)C(c4ccccc4)c4ccccc4)sc32)s1
[5]
  CC50: 5.99 µM (active)

## CCOc1ccc(-c2cn(S(=O)(=O)c3cccc4nsnc34)nc2N)cc1
[5]
  CC50: > 50 µM (active)

## COC(=O)c1ccc(N=NNc2ccc(C(=O)OC)cc2)cc1
[3]
  EC50: > 195 µM (not active)

## COc1ccc(CN2CCN(C(C)C(=O)N(C)Cc3cccc(F)c3)CC2)cc1OC (stereo unspecified)
[4]
  IC50: 76.2 µM (active)

## COc1ccc(NC(=O)C(C)N2CCN(C)CC2)cc1 (stereo unspecified)
[4]
  IC50: 78.1 µM (active)

## O=C(O)CSc1cc(-c2ccccc2)nc2ccccc12
Cytochrome P450 2C9
  AC50: 3.16 µM (inconclusive)

## O=C(CN1CCCCCC1)NCC1CCCO1 (stereo unspecified)
[4]
  IC50: 117 µM (active)

## COc1ccc(OCCOCCN2CCc3ccccc3C2)cc1
[1]
  EC50: 0.141 µM (active)
[2]
  EC50: > 60 µM (not active)

## O=C(COc1ccccc1)Nc1ccc(N2CCN(C(=O)c3ccco3)CC2)cc1
[5]
  CC50: 23.6 µM (active)

## Cc1cc(C(=O)CSc2ccc(F)cc2)cc(C)c1O
[5]
  CC50: 22 µM (active)

## COC(=O)c1cc(COc2ccc3oc(C)c(C(=O)OC(C)C)c3c2)c(C)o1
[3]
  EC50: > 195 µM (not active)

## N#C/C(=C\c1c(Cl)cccc1Cl)c1nn(-c2ccccc2)c(-n2cccc2)c1C#N
[1]
  EC50: 1.29 µM (active)
[2]
  EC50: > 60 µM (not active)

## COc1cccc(-c2nn(-c3ccccc3)cc2/C=C\C(=O)c2cccs2)c1
[5]
  CC50: 24.3 µM (active)

## O=S(=O)(N1CCCCC1)n1nnc2ccccc21
[3]
  EC50: > 195 µM (not active)

## CCOC(=O)c1cn2nc(-c3ccc(OC)cc3)cc2nc1C1CCN(C(=O)OC(C)(C)C)CC1
[1]
  EC50: 1.55 µM (active)
[2]
  EC50: > 60 µM (not active)

## Cc1cnc(C(=O)Nc2cccc3cccnc23)cn1
[1]
  EC50: 2.22 µM (active)

## CCOC(=O)c1c(CC(C)C)csc1NC=O
Cytochrome P450 3A4
  AC50: 22.4 µM (inconclusive)

## CCn1cc(C(=O)NCCCN2CC(C)CC(C)C2)c(=O)c2cc(S(=O)(=O)N(C)C)ccc21 (stereo unspecified)
[3]
  EC50: > 195 µM (not active)

## c1ccc(Cn2nnnc2C(c2cccnc2)N2CCN(c3ccccc3)CC2)cc1 (stereo unspecified)
[1]
  EC50: 0.534 µM (active)
[2]
  EC50: > 60 µM (not active)

## CC1CC(C)CN(C2CCN(Cc3cccnc3)CC2)C1 (stereo unspecified)
[4]
  IC50: 49.6 µM (active)

## CC(=O)OC1(c2ccccc2)CCN(C)C2CCCCC21 (stereo unspecified)
[3]
  EC50: > 195 µM (not active)

## CCC(=O)c1ccccc1OCCN1CCN(CC)CC1
[4]
  IC50: 88.2 µM (active)

## COCCSc1ccccc1C(=O)N1CCCC(C)C1 (stereo unspecified)
[6]
  EC50: > 150 µM (not active)
Streptococcus
  EC50: > 150 µM (not active)

## CCOC(=O)c1[nH]c2cc(OC)c(OC)cc2c1N
[4]
  IC50: 35 µM (active)

## CC(C)CCNc1nc(N2CCCC2)c2c(c1C#N)CCN(C)C2
[1]
  EC50: 0.1 µM (active)
[2]
  EC50: > 60 µM (not active)

## COc1ccc(C2=NN(C(=O)c3cccs3)C(c3ccccc3O)C2)cc1 (stereo unspecified)
[1]
  EC50: 3.01 µM (active)
[2]
  EC50: > 60 µM (not active)

## Cc1cc(C)c(OCCCCN(C)C)c(Br)c1
[1]
  EC50: 0.46 µM (active)
[2]
  EC50: > 60 µM (inconclusive)

## O=[N+]([O-])c1ccc2c(c1)Cc1cc(O)ccc1-2
[4]
  IC50: 16.7 µM (active)

## O=C(CSc1nnc(C2CC2)n1C1CC1)N1CCN(c2ccc(O)cc2)CC1
[4]
  IC50: 30.2 µM (active)

## CCOc1ccccc1/N=N/c1c(C)[nH]n(C(N)=S)c1=O
[5]
  CC50: 33.1 µM (active)

## CCN(CC)S(=O)(=O)c1cccc(C(=O)N/N=C/c2ccc(OC)c(O)c2)c1
[4]
  IC50: 76.7 µM (active)

## C/C(=N\OCC(=O)Nn1c(=O)[nH]c2ccccc2c1=O)c1cccs1
[3]
  EC50: > 195 µM (not active)

## CCn1nc(C)c(/C=N/NC(=O)c2c[nH]c3ccccc23)c1C
[3]
  EC50: > 195 µM (not active)

## O=C1OC2(CCCCC2)OC(O)=C1/C=N/c1nccs1
[3]
  EC50: > 195 µM (not active)
